{
  "source": "patent US20210321638A1",
  "about": "“ANIMAL FEED AND METHODS TO PROVIDE SUCH FEED” (Nutreco Nederland B.V., priority 2016, published 2021)",
  "key": {"E. coli": {"tested_on": "E. coli", "test": "in vitro adhesion of bacteria to coated 96-well plate, time to onset OD600", "type": "cell-based, Escherichia coli", "description": "(§1) Use was made of a 96-well plate on which the ABM mycelium was coated. For this, the ABM mycelium (in this and each case below a fermented rye product was actually used, in which product the amount of ABM mycelium was about 15% w/w) was suspended in PBS to a final concentration of 1% (w/v) and mixed thoroughly. Subsequently the suspension was centrifuged to remove insoluble material. Thereafter, the supernatant was used for coating the wells of the microtiter plate. For the adhesion assessment, a Salmonella typhimurium suspension was added to the microtiter plate. The plate was then incubated for 30 minutes and after this incubation step washed with PBS. Subsequently growth medium was added to the wells and the time to onset OD600 value was determined. The optical density (OD) measurement was used as a tool to compare numbers of adhered bacteria to the coated wells of the 96-well plate with different compounds. The initial cell density of adhered bacteria correlates with the time-dependent detection of the growth by optical density measurement.\nIn a second in vitro study, the test was repeated, and additionally the effect on Salmonella enteritidis and E. coli was measured. Also, the amount of ABM mycelium was used in the full amount (see above; denoted “100%”), half of this amount (“50%”) and a quarter of this amount (“25%”). […]"}, "Salmonella typhimurium": {"tested_on": "Salmonella typhimurium", "test": "in vitro adhesion of bacteria to coated 96-well plate, time to onset OD600", "type": "cell-based", "details": "Table 4, Example 4; total amount of agents the same in all experiments; control 6.95", "method": "Example 1 describes an in vitro model study for assessing the effect of ABM mycelium on bacterial adhesion. In this method the adhesion of Salmonella typhimurium to ABM mycelium is assessed.\nas §1\nIn a second in vitro study, the test was repeated, and additionally the effect on Salmonella enteritidis and E. coli was measured. […]"}},
  "data": [
    {"compound": "OC[C@H]1O[C@@H](O[C@H]2[C@H](O)[C@H](O)C(O)O[C@@H]2CO)[C@@H](O)[C@@H](O)[C@@H]1O", "note": "(stereo partly drawn) [β-1,4-mannobiose]", "values": [
      {"measurement": "effect on the adhesion of E. coli / onset OD600, in words", "setting": "E. coli; Example 4, compared to the control and β-1,4-mannobiose alone", "result": "does not have an effect"},
      {"measurement": "time to onset OD600, E. coli", "setting": "E. coli; Table 4, Example 4, total amount of agents the same in all experiments, control 7.10", "result": 7.30, "unit": "h"},
      {"measurement": "time to onset OD600, S. typhimurium", "setting": "Salmonella typhimurium", "result": 5.90, "unit": "h"}
    ]}
  ]
}
